Numbers after ± are expanded uncertainties.
Assay: xn = mol fraction of the nth substance listed
Settings: 101 kPa, Liquid; for speed of sound: Sing-around technique in a fixed-path interferometer; for mass density: Vibrating tube method

CCCCCCn1cc[n+](C)c1.F[P-](F)(F)(F)(F)F [1-hexyl-3-methylimidazolium hexafluorophosphate] + COCCO
Settings | mass density [kg/m3] | speed of sound [m/s]
288.15 K, x1 = 0.0503 | 1020.76 ± 0.19 | 1399.2 ± 0.88
288.15 K, x1 = 0.1092 | 1067.45 ± 0.18 | 1411 ± 0.9
288.15 K, x1 = 0.2006 | 1121.27 ± 0.2 | 1419.8 ± 0.93
288.15 K, x1 = 0.3032 | 1165.23 ± 0.22 | 1422.9 ± 0.96
288.15 K, x1 = 0.4013 | 1197.38 ± 0.25 | 1424.7 ± 1
288.15 K, x1 = 0.5017 | 1223.62 ± 0.29 | 1427.5 ± 1
288.15 K, x1 = 0.6054 | 1245.52 ± 0.33 | 1433.9 ± 1.1
288.15 K, x1 = 0.7024 | 1262.69 ± 0.36 | 1434.3 ± 1.1
288.15 K, x1 = 0.8019 | 1277.93 ± 0.4 | 1436.7 ± 1.1
288.15 K, x1 = 0.9094 | 1292.27 ± 0.45 | 1442.3 ± 1.2
293.15 K, x1 = 0.0503 | 1016.22 ± 0.18 | 1382.5 ± 0.87
293.15 K, x1 = 0.1092 | 1062.97 ± 0.18 | 1394.8 ± 0.89
293.15 K, x1 = 0.2006 | 1116.89 ± 0.19 | 1404.6 ± 0.92
293.15 K, x1 = 0.3032 | 1160.9 ± 0.22 | 1408.6 ± 0.96
293.15 K, x1 = 0.4013 | 1193.08 ± 0.25 | 1411.3 ± 0.99
293.15 K, x1 = 0.5017 | 1219.44 ± 0.29 | 1414.5 ± 1
293.15 K, x1 = 0.6054 | 1241.45 ± 0.32 | 1421.2 ± 1.1
293.15 K, x1 = 0.7024 | 1258.71 ± 0.36 | 1421.4 ± 1.1
293.15 K, x1 = 0.8019 | 1273.92 ± 0.4 | 1424 ± 1.1
293.15 K, x1 = 0.9094 | 1288.2 ± 0.44 | 1428.6 ± 1.2
298.15 K, x1 = 0.0503 | 1011.72 ± 0.18 | 1365.8 ± 0.87
298.15 K, x1 = 0.1092 | 1058.47 ± 0.18 | 1378.9 ± 0.89
298.15 K, x1 = 0.2006 | 1112.46 ± 0.19 | 1389.6 ± 0.92
298.15 K, x1 = 0.3032 | 1156.56 ± 0.22 | 1394.5 ± 0.95
298.15 K, x1 = 0.4013 | 1188.79 ± 0.25 | 1398 ± 0.99
298.15 K, x1 = 0.5017 | 1215.23 ± 0.28 | 1401.7 ± 1
298.15 K, x1 = 0.6054 | 1237.4 ± 0.32 | 1407.8 ± 1.1
298.15 K, x1 = 0.7024 | 1254.67 ± 0.36 | 1408.9 ± 1.1
298.15 K, x1 = 0.8019 | 1269.91 ± 0.4 | 1411.5 ± 1.1
298.15 K, x1 = 0.9094 | 1284.2 ± 0.44 | 1415.8 ± 1.2
303.15 K, x1 = 0.0503 | 1007.16 ± 0.18 | 1349.2 ± 0.86
303.15 K, x1 = 0.1092 | 1053.96 ± 0.18 | 1362.9 ± 0.88
303.15 K, x1 = 0.2006 | 1108.02 ± 0.19 | 1374.7 ± 0.91
303.15 K, x1 = 0.3032 | 1152.21 ± 0.22 | 1380.7 ± 0.95
303.15 K, x1 = 0.4013 | 1184.47 ± 0.25 | 1385.2 ± 0.99
303.15 K, x1 = 0.5017 | 1210.98 ± 0.28 | 1389 ± 1
303.15 K, x1 = 0.6054 | 1233.3 ± 0.32 | 1395.1 ± 1.1
303.15 K, x1 = 0.7024 | 1250.63 ± 0.35 | 1396.7 ± 1.1
303.15 K, x1 = 0.8019 | 1265.91 ± 0.39 | 1399.4 ± 1.1
303.15 K, x1 = 0.9094 | 1280.2 ± 0.44 | 1403.3 ± 1.2
308.15 K, x1 = 0.0503 | 1002.49 ± 0.18 | 1332.7 ± 0.86
308.15 K, x1 = 0.1092 | 1049.43 ± 0.18 | 1347.1 ± 0.88
308.15 K, x1 = 0.2006 | 1103.58 ± 0.19 | 1359.9 ± 0.91
308.15 K, x1 = 0.3032 | 1147.84 ± 0.21 | 1367.3 ± 0.95
308.15 K, x1 = 0.4013 | 1180.37 ± 0.24 | 1372.3 ± 0.98
308.15 K, x1 = 0.5017 | 1206.95 ± 0.28 | 1376.4 ± 1
308.15 K, x1 = 0.6054 | 1229.34 ± 0.32 | 1382.4 ± 1.1
308.15 K, x1 = 0.7024 | 1246.77 ± 0.35 | 1384.5 ± 1.1
308.15 K, x1 = 0.8019 | 1262.04 ± 0.39 | 1387.4 ± 1.1
308.15 K, x1 = 0.9094 | 1276.2 ± 0.43 | 1391.3 ± 1.2
313.15 K, x1 = 0.0503 | 997.703 ± 0.18 | 1316.2 ± 0.85
313.15 K, x1 = 0.1092 | 1044.81 ± 0.18 | 1331.4 ± 0.87
313.15 K, x1 = 0.2006 | 1099.15 ± 0.19 | 1345.2 ± 0.91
313.15 K, x1 = 0.3032 | 1143.59 ± 0.21 | 1353.7 ± 0.94
313.15 K, x1 = 0.4013 | 1176 ± 0.24 | 1359.4 ± 0.98
313.15 K, x1 = 0.5017 | 1202.67 ± 0.28 | 1364 ± 1
313.15 K, x1 = 0.6054 | 1225.28 ± 0.31 | 1370 ± 1.1
313.15 K, x1 = 0.7024 | 1242.9 ± 0.35 | 1372.4 ± 1.1
313.15 K, x1 = 0.8019 | 1258.23 ± 0.39 | 1375.7 ± 1.1
313.15 K, x1 = 0.9094 | 1272.23 ± 0.43 | 1379.5 ± 1.2
318.15 K, x1 = 0.0503 | 993.086 ± 0.18 | 1299.8 ± 0.85
318.15 K, x1 = 0.1092 | 1040.18 ± 0.18 | 1316 ± 0.87
318.15 K, x1 = 0.2006 | 1094.74 ± 0.19 | 1330.8 ± 0.9
318.15 K, x1 = 0.3032 | 1139.13 ± 0.21 | 1340.3 ± 0.94
318.15 K, x1 = 0.4013 | 1171.68 ± 0.24 | 1346.7 ± 0.98
318.15 K, x1 = 0.5017 | 1198.47 ± 0.27 | 1351.6 ± 1
318.15 K, x1 = 0.6054 | 1221.29 ± 0.31 | 1357.5 ± 1.1
318.15 K, x1 = 0.7024 | 1239.06 ± 0.35 | 1360.5 ± 1.1
318.15 K, x1 = 0.8019 | 1254.4 ± 0.38 | 1364.1 ± 1.1
318.15 K, x1 = 0.9094 | 1268.47 ± 0.43 | 1368.1 ± 1.2

From the NIST ThermoML archive (doi:10.1016/j.fluid.2012.08.002)
